From patent US4902720A (priority 1988, dated 1990)

Experiments:
HSV-2 (333 strain) = experiment: Plaque inhibition by HMB, HSV-2 333 strain in Vero cells (third series, Experiments 1M-1P); assay type: cell-based
Method: In this experiment, 25 mg/ml HMB was tested on Vero cells infected with HSV-2. The virus control cultures, without HMB, had 705 plaque.
The number of plaque on the virus control was about 10 to 12 plaque.
In this experiment, 25 mg/ml, 20 mg/ml, and 15 mg/ml of HMB concentrations were tested on Vero cells infected with HSV-2. […] The experimental flasks had as many, or more, plaque as the control, with an average of 154 plaque for the control and 169 plaque for the HMB-treated flasks.
HMB was further tested at a concentration of 20 mg/ml of reinfected Vero cells.

HSV-1 and HSV-2 = assay type: cell-based; conditions: summary
RK-13 cells = conditions: 25 mg/ml, 48 hours, 37° C.
Method: (§1) Healthy confluent monolayer cell cultures were overlaid with 1 ml of the drug and incubated for 48 hours at 37° C. and then stained. Cell cultures with maintenance media were used as controls.

Vero cells = conditions: 25 mg/ml, 48 hours, 37° C.
Method: as §1

[1] = system: Flow 1000 cells (foreskin cells); conditions: 25 mg/ml, 48 hours, 37° C.
Method: as §1

`C[N+](C)(C)CCCCCC[N+](C)(C)C` [HMB, hexamethonium bromide] was tested. Which “appearance of cell layer” value (HSV-2 (333 strain); Exp. 1M, 25 mg/ml HMB) did it give?
The value was “thin cell layer”.

What about the number of plaque (HSV-2 (333 strain); Exp. 1M, 25 mg/ml HMB, control 705) of the same compound?
Its number of plaque is 142 plaque.

And the inhibition of plaque (HSV-2 (333 strain); Exp. 1N, 20 mg/ml HMB, control about 10 to 12 plaque)?
Its inhibition of plaque is “complete inhibition of plaque”.

And the effect on plaque (HSV-2 (333 strain); Exp. 1O, 15 mg/ml HMB)?
Its effect on plaque is “did not have any effect”.

What about the “average number of plaque” value (HSV-2 (333 strain); Exp. 1O, 15 mg/ml HMB, control 154) of the same compound?
Its value is 169 plaque.

And the number of plaque (HSV-2 (333 strain); Exp. 1O, 20 mg/ml HMB)?
The number of plaque was “no plaque”.

And the “toxicity to the monolayer” value (HSV-2 (333 strain); Exp. 1O, 25 mg/ml HMB)?
The value was “toxic to the monolayer”.

What about the number of plaque (HSV-2 (333 strain); Exp. 1O, 25 mg/ml HMB, most likely due to toxicity) of the same compound?
The number of plaque was “no plaque”.

And the inhibition at 25000 µg/mL (HSV-2 (333 strain); Human alphaherpesvirus 2, Vero, Exp. 1M, 25 mg/ml HMB)?
Its inhibition at 25000 µg/mL is 80%.

What about the inhibition at 20000 µg/mL (HSV-2 (333 strain); Human alphaherpesvirus 2, Vero, Exp. 1P, 20 mg/ml HMB) of the same compound?
The inhibition at 20000 µg/mL was 91%.

What about the “in vitro replication of HSV-1 and HSV-2” value (HSV-1 and HSV-2) of the same compound?
Its value is “inhibit the in vitro replication of HSV-1 and HSV-2”.

And the toxicity (RK-13 cells)?
Its toxicity is “slight toxicity”.

What about the toxicity (Vero cells) of the same compound?
Its toxicity is “no toxicity”.

What about the toxicity [1] of the same compound?
The toxicity was “no toxicity”.
